# US20240368351A1, “FACTORS CONTROLLING DRUG RELEASE IN CROSS-LINKED POLY(VALEROLACTONE) BASED MATRICES” (Pendant Biosciences, Inc., priority 2019, published 2024)
# Columns and labels:
# [1] = logP (octanol-water partition) by shake tube method; format: physicochemical; conditions: for logP: read-out: Calculated LogP
# [2] = Drug solubility in different release media (PBS with Tween 80 or SDS); format: physicochemical; conditions: for solubility at 48 h: release media (PBS with Tween 80 or SDS), 37 °C, pH 7.4, aqueous with cosolvent or surfactant or cyclodextrin, thermodynamic from solid
# Experimental: Mikkelsen, L. M., Enzyme solubility in liquid detergent and use of detergent composition. […] Crotts, G.; Park, T. G. Protein delivery from poly(lactic-co-glycolic acid) biodegradable microspheres: Release kinetics and stability issues. […] FDA.
# The solutions were centrifuged at 8000 rpm for 10 minutes, and a 1 ml aliquot was withdrawn, filtered through a 0.45 μm nylon membrane, and analyzed by HPLC.
# [3] = Solubility of Drug X in organic solvents and water; format: physicochemical
# [4] = In vitro drug release from microparticles; format: physicochemical
# Description: There is no significant difference with Mesh, NaCl, and EtOH for release rate. Drug X loaded MPs show insufficient washing (high t=0) and burst release in a day.
# Method: We will use a dialysis bag to properly change release media without loss of microparticle. This will prevent accumulation of Drug X degradation over time and allow more accurate release analysis. We will examine release with Drug X-loaded microparticle in different media (i.e. only PBS at pH 7.5).
# (§1) Method: Drug X-loaded microparticle in release media will be taken after 1 hrs and utilized to extract residue Drug X from microparticle.
# [5] = Extraction and recovery of Drug X from discs and microparticles (stability in polymer matrix); format: physicochemical
# Experimental: In Table 53, a study was conducted in which a Drug X-loaded disc was placed in 10 mL of dichloromethane (DCM) for 8 hr at room temperature to extract Drug X, and DCM was removed using a rotary evaporator at 25° C. This extraction process was repeated two times. The extracted drug dissolved in a acetonitrile (ACN) was filtered using 0.45 μm a nylon membrane and measured by HPLC for extraction efficiency.
# as §1
# We took out a disc after 2 weeks of release and freeze fried it. Then, the residual Drug X remaining in discs was extracted using dichloromethane to confirm Drug X stability in the disc.
# [6] = cited from earlier work
# blood plasma protein = conditions: cited from earlier work
# [7] = In vitro drug release from cross-linked matrices (CPs), sample-and-separate, with mathematical modeling (Fick diffusion); format: physicochemical; conditions: after 35 days; embodiment statement
# Experimental: Evaluation of in vitro drug release: impact of the nature of the drug, polymer and release media: In the in vitro release studies the impact of a number of variables was evaluated including nature of the drug, compatibility between the drug and the polymer matrix, degree of crystallinity of the matrix, M.W. of the copolymer, cross-linking density and the composition of the release media. The commonly used, sample-and-separate method was employed to evaluate drug release from the cross-linked matrices. D'Souza, S. S.; DeLuca, P. P. Methods to Assess in vitro Drug Release from Injectable Polymeric Particulate Systems. Pharmaceutical Research 2006, 23, 3, 460-474.
# The Peppas-Sahlin model, where diffusion and polymer relaxation are known to be the underlying drivers of drug release provided the best fit in terms of R^2adjusted (FIGS. 8A and 8C) For cylindrical shaped matrices, Fickian diffusion is considered to be operative when the ratio of diameter to thickness (n or m) of the matrix is equal to or less than 0.45. If the value is […], the drug release mechanism is considered non-Fickian; whereas, if n is 0.89 drug release is considered to be case II transport. Herein, the dimension and the geometry of the matrices evaluated have a value of 0.78<n<0.80. […]
# Protocols for drug analysis by HPLC and cytotoxicity evaluation of the cross-linked matrices: The drug release was analyzed by reverse phase HPLC using an Agilent 1200 HPLC system with Agilent ChemStation software, an XDB C18 column (150×4.6 mm i.d+guard column) and UV detection. […] Drug concentrations were quantified using calibration curves using standards that ranged in concentration from 1 to 100 μg/ml (0.9986≤R^2≤1).
# The CPs were incubated at 37° C. under constant stirring and at pre-determined time points, a 1 ml aliquout was removed and replaced with 1 mL of fresh media and the samples were immediately frozen at −20° C. for storage prior to HPLC analysis. […] The drug was reconstituted in 1 ml of the HPLC mobile phase and analyzed to correct the DLC and release curves. […]
# [8] = pure PBS pH 7.4; cited from earlier work
# [9] = tested on: L929 mouse fibroblast cells
# Method: Cytotoxicity evaluation: CPs were incubated in culture media at a surface area to volume ratio of 1.25 cm^2/mL for 48 h. […] The L929 fibroblast cells were cultured and routinely maintained in Dulbecco's modified Eagle's medium (DMEM) supplemented with 10% fetal bovine serum (FBS) and 1% penicillin-streptomycin. The cells were grown in a monolayer in tissue culture flasks incubated at 37° C. and 5% CO2 at 90% relative humidity. Cells were counted and seeded in 96-well plates at a density of 2000 cells/well, which was determined to be the optimum cell density. After 24 h incubation, growth media was aspirated and replaced with either 150 μL CPs extracts at a surface area to volume ratio of 1.25 cm^2/mL or the same volume of extraction media that had been serially diluted to the above concentrations. Following 24, 48, and 72 h incubation periods, cell viability was evaluated using the MTS assay. Specifically, the extraction media was aspirated and replaced with 200 μL of fresh media followed by 20 μL of MTS reagent, and the cells were incubated at 37° C. for 1.5 h. Cell viability was measured by optical absorbance at 2=490 nm using a Cytation™ 5 Cell Imaging Multi-Mode Reader (BioTek, Vermont). […]
# The cytotoxicities of the cross-linked matrices were evaluated in L929 mouse fibroblast cells using the extraction dilution method (FIG. 16).
molecule,measurement,setting,value
"COc1cc(/C=C/C(=O)CC(=O)/C=C/c2ccc(O)c(OC)c2)ccc1O [Curcumin, curcumin]",Calculated LogP,[1],3
same,solubility at 48 h,[2],45.6 ± 1.05 µg/mL
CC(C)OC(=O)[C@H](C)N[P@](=O)(CO[C@H](C)Cn1cnc2c(N)ncnc21)Oc1ccccc1 [Drug X],Solubility in EtOH/DMSO (50/50),[3]; 5 mg per 100 mL or μL,"Soluble, and"
same,Solubility in DMSO/Water (50/50),[3]; 5 mg per 200 mL or μL,Insoluble
same,Solubility in Water,[3]; 5 mg per 200 mL or μL,Insoluble
same,time within which most of Drug X is released from MP,[4],≤ 1 h
same,Drug X remained inside the MP after extraction,[4]; after 1 hr release,around 100 μg
same,degradation (second HPLC peak) in release and extraction samples,"[5]; 1 hr time point, microparticles",no second peak detected
same,Drug X recovered from the extraction,[5]; after two-day release,~35%
same,drug recovered from the discs (release & extraction),"[5]; disc after 2 weeks of release, dichloromethane extraction",88-93%
same,Drug X released,[5]; during the two-day release,~50%
same,extraction efficiency,[5]; in the disc,85%
same,total recovered of the encapsulated Drug X,[5]; release plus extraction,83%-90%
same,Log P,[6],1.6
same,Water solubility,[6],(4.86 mg/mL)
same,Water solubility (words),[6],Soluble in water
same,pKa,[6],2.74
same,bound to blood plasma protein,blood plasma protein,80%
"CC(=O)O[C@H]1C(=O)[C@@]2(C)[C@H]([C@H](OC(=O)c3ccccc3)[C@]3(O)C[C@H](OC(=O)[C@H](O)[C@@H](NC(=O)c4ccccc4)c4ccccc4)C(C)=C1C3(C)C)[C@]1(OC(C)=O)CO[C@@H]1C[C@@H]2O [Paclitaxel, paclitaxel]",logP,[1],2.7
same,"solubility, times greater in 0.5% SDS than in 0.1% SDS",[2]; PBS,10 times
same,"solubility, times greater in 0.5% SDS than in 0.1% Tween 80",[2]; PBS,50 times
same,solubility at 48 h,[2],106 ± 0.57 µg/mL
same,cumulative release from the drug-loaded crosslinked copolymer,[7],about 58 wt %
"CC1(C)O[C@@H]2C[C@H]3[C@@H]4CCC5=CC(=O)C=C[C@]5(C)[C@@]4(F)[C@@H](O)C[C@]3(C)[C@]2(C(=O)CO)O1 [Triamcinolone acetonide, triamcinolone acetonide]",logP,[1],2.3
same,solubility at 48 h,[2],287 ± 56.9 µg/mL
same,TAA solubility,[8],2.1 µg/mL
high density polyethylene [HDPE],decrease in cell viability relative to the untreated control,[9],approximately 66%
